{"source": "PubChem BioAssay (NCI)", "assay_in_all_cases": "DTP human tumour cell line panel, 48 h", "key": {"786-0 renal": {"tested_on": "786-0 renal"}, "A498 renal": {"tested_on": "A498 renal"}, "A549 NSCLC": {"tested_on": "A549 NSCLC"}, "ACHN renal": {"tested_on": "ACHN renal"}, "BT-549 breast": {"tested_on": "BT-549 breast"}, "CCRF-CEM leukemia": {"tested_on": "CCRF-CEM leukemia"}, "COLO 205 colon": {"tested_on": "COLO 205 colon"}, "DU-145 prostate": {"tested_on": "DU-145 prostate"}, "EKVX NSCLC": {"tested_on": "EKVX NSCLC"}, "HCT-116 colon": {"tested_on": "HCT-116 colon"}, "HCT-15 colon": {"tested_on": "HCT-15 colon"}, "HL-60(TB) leukemia": {"tested_on": "HL-60(TB) leukemia"}, "HOP-62 NSCLC": {"tested_on": "HOP-62 NSCLC"}, "HOP-92 NSCLC": {"tested_on": "HOP-92 NSCLC"}, "HS 578T breast": {"tested_on": "HS 578T breast"}, "HT29 colon": {"tested_on": "HT29 colon"}, "IGROV1 ovarian": {"tested_on": "IGROV1 ovarian"}, "K-562 leukemia": {"tested_on": "K-562 leukemia"}, "KM12 colon": {"tested_on": "KM12 colon"}, "LOX IMVI melanoma": {"tested_on": "LOX IMVI melanoma"}, "M14 melanoma": {"tested_on": "M14 melanoma"}, "MALME-3M melanoma": {"tested_on": "MALME-3M melanoma"}, "MCF7 breast": {"tested_on": "MCF7 breast"}, "MDA-MB-231 breast": {"tested_on": "MDA-MB-231 breast"}, "MDA-MB-435": {"tested_on": "MDA-MB-435"}, "MDA-N": {"tested_on": "MDA-N"}, "MOLT-4 leukemia": {"tested_on": "MOLT-4 leukemia"}, "NCI-H226 lung": {"tested_on": "NCI-H226 lung"}, "NCI-H23 lung": {"tested_on": "NCI-H23 lung"}, "NCI-H460 lung": {"tested_on": "NCI-H460 lung"}, "NCI/ADR-RES ovarian": {"tested_on": "NCI/ADR-RES ovarian"}, "OVCAR-3 ovarian": {"tested_on": "OVCAR-3 ovarian"}, "OVCAR-4 ovarian": {"tested_on": "OVCAR-4 ovarian"}, "OVCAR-5 ovarian": {"tested_on": "OVCAR-5 ovarian"}, "OVCAR-8 ovarian": {"tested_on": "OVCAR-8 ovarian"}, "PC-3 prostate": {"tested_on": "PC-3 prostate"}, "RPMI-8226 leukemia": {"tested_on": "RPMI-8226 leukemia"}, "RXF 393 renal": {"tested_on": "RXF 393 renal"}, "SF-268 CNS": {"tested_on": "SF-268 CNS"}, "SF-295 CNS": {"tested_on": "SF-295 CNS"}, "SF-539 CNS": {"tested_on": "SF-539 CNS"}, "SK-MEL-2 melanoma": {"tested_on": "SK-MEL-2 melanoma"}, "SK-MEL-28 melanoma": {"tested_on": "SK-MEL-28 melanoma"}, "SK-MEL-5 melanoma": {"tested_on": "SK-MEL-5 melanoma"}, "SK-OV-3 ovarian": {"tested_on": "SK-OV-3 ovarian"}, "SN12C renal": {"tested_on": "SN12C renal"}, "SNB-19 CNS": {"tested_on": "SNB-19 CNS"}, "SNB-75 CNS": {"tested_on": "SNB-75 CNS"}, "SR leukemia": {"tested_on": "SR leukemia"}, "SW-620 colon": {"tested_on": "SW-620 colon"}, "T-47D breast": {"tested_on": "T-47D breast"}, "TK-10 renal": {"tested_on": "TK-10 renal"}, "U251 CNS": {"tested_on": "U251 CNS"}, "UACC-257 melanoma": {"tested_on": "UACC-257 melanoma"}, "UACC-62 melanoma": {"tested_on": "UACC-62 melanoma"}, "UO-31 renal": {"tested_on": "UO-31 renal"}}, "note": "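48-hour exposure; five concentrations; linearly interpolated endpoints. TGI is the concentration that stops growth completely.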"}
{"smiles": "CCN1C[C@]2(C)CC[C@H](OC)C34C5C[C@@H]6[C@@H](OC)C[C@@](OC)(C5[C@H]6OCc5ccccc5)C(C13)[C@H](OC(C)=O)[C@@H]42", "note": "(stereo partly specified)", "values": [{"measurement": "TGI", "setting": "786-0 renal", "value": "> 100", "unit": "µM"}, {"measurement": "TGI", "setting": "A498 renal", "value": "> 100", "unit": "µM"}, {"measurement": "TGI", "setting": "A549 NSCLC", "value": "> 100", "unit": "µM"}, {"measurement": "TGI", "setting": "ACHN renal", "value": "> 100", "unit": "µM"}, {"measurement": "TGI", "setting": "BT-549 breast", "value": "> 100", "unit": "µM"}, {"measurement": "TGI", "setting": "CCRF-CEM leukemia", "value": "> 100", "unit": "µM"}, {"measurement": "TGI", "setting": "COLO 205 colon", "value": "> 100", "unit": "µM"}, {"measurement": "TGI", "setting": "DU-145 prostate", "value": "> 100", "unit": "µM"}, {"measurement": "TGI", "setting": "EKVX NSCLC", "value": "> 100", "unit": "µM"}, {"measurement": "TGI", "setting": "HCT-116 colon", "value": "> 100", "unit": "µM"}, {"measurement": "TGI", "setting": "HCT-15 colon", "value": "> 100", "unit": "µM"}, {"measurement": "TGI", "setting": "HL-60(TB) leukemia", "value": "> 100", "unit": "µM"}, {"measurement": "TGI", "setting": "HOP-62 NSCLC", "value": "> 100", "unit": "µM"}, {"measurement": "TGI", "setting": "HOP-92 NSCLC", "value": "> 100", "unit": "µM"}, {"measurement": "TGI", "setting": "HS 578T breast", "value": "> 100", "unit": "µM"}, {"measurement": "TGI", "setting": "HT29 colon", "value": "> 100", "unit": "µM"}, {"measurement": "TGI", "setting": "IGROV1 ovarian", "value": "> 100", "unit": "µM"}, {"measurement": "TGI", "setting": "K-562 leukemia", "value": "> 100", "unit": "µM"}, {"measurement": "TGI", "setting": "KM12 colon", "value": "> 100", "unit": "µM"}, {"measurement": "TGI", "setting": "LOX IMVI melanoma", "value": "> 100", "unit": "µM"}, {"measurement": "TGI", "setting": "M14 melanoma", "value": "> 100", "unit": "µM"}, {"measurement": "TGI", "setting": "MALME-3M melanoma", "value": "> 100", "unit": "µM"}, {"measurement": "TGI", "setting": "MCF7 breast", "value": "> 100", "unit": "µM"}, {"measurement": "TGI", "setting": "MDA-MB-231 breast", "value": "> 100", "unit": "µM"}, {"measurement": "TGI", "setting": "MDA-MB-435", "value": "> 100", "unit": "µM"}, {"measurement": "TGI", "setting": "MDA-N", "value": "> 100", "unit": "µM"}, {"measurement": "TGI", "setting": "MOLT-4 leukemia", "value": "> 100", "unit": "µM"}, {"measurement": "TGI", "setting": "NCI-H226 lung", "value": "> 100", "unit": "µM"}, {"measurement": "TGI", "setting": "NCI-H23 lung", "value": "> 100", "unit": "µM"}, {"measurement": "TGI", "setting": "NCI-H460 lung", "value": "> 100", "unit": "µM"}, {"measurement": "TGI", "setting": "NCI/ADR-RES ovarian", "value": "> 100", "unit": "µM"}, {"measurement": "TGI", "setting": "OVCAR-3 ovarian", "value": "> 100", "unit": "µM"}, {"measurement": "TGI", "setting": "OVCAR-4 ovarian", "value": "> 100", "unit": "µM"}, {"measurement": "TGI", "setting": "OVCAR-5 ovarian", "value": "> 100", "unit": "µM"}, {"measurement": "TGI", "setting": "OVCAR-8 ovarian", "value": "> 100", "unit": "µM"}, {"measurement": "TGI", "setting": "PC-3 prostate", "value": "> 100", "unit": "µM"}, {"measurement": "TGI", "setting": "RPMI-8226 leukemia", "value": "> 100", "unit": "µM"}, {"measurement": "TGI", "setting": "RXF 393 renal", "value": "> 100", "unit": "µM"}, {"measurement": "TGI", "setting": "SF-268 CNS", "value": "> 100", "unit": "µM"}, {"measurement": "TGI", "setting": "SF-295 CNS", "value": "> 100", "unit": "µM"}, {"measurement": "TGI", "setting": "SF-539 CNS", "value": "> 100", "unit": "µM"}, {"measurement": "TGI", "setting": "SK-MEL-2 melanoma", "value": "> 100", "unit": "µM"}, {"measurement": "TGI", "setting": "SK-MEL-28 melanoma", "value": "> 100", "unit": "µM"}, {"measurement": "TGI", "setting": "SK-MEL-5 melanoma", "value": "> 100", "unit": "µM"}, {"measurement": "TGI", "setting": "SK-OV-3 ovarian", "value": "> 100", "unit": "µM"}, {"measurement": "TGI", "setting": "SN12C renal", "value": "> 100", "unit": "µM"}, {"measurement": "TGI", "setting": "SNB-19 CNS", "value": "> 100", "unit": "µM"}, {"measurement": "TGI", "setting": "SNB-75 CNS", "value": 36, "unit": "µM"}, {"measurement": "TGI", "setting": "SR leukemia", "value": "> 100", "unit": "µM"}, {"measurement": "TGI", "setting": "SW-620 colon", "value": "> 100", "unit": "µM"}, {"measurement": "TGI", "setting": "T-47D breast", "value": "> 100", "unit": "µM"}, {"measurement": "TGI", "setting": "TK-10 renal", "value": "> 100", "unit": "µM"}, {"measurement": "TGI", "setting": "U251 CNS", "value": "> 100", "unit": "µM"}, {"measurement": "TGI", "setting": "UACC-257 melanoma", "value": "> 100", "unit": "µM"}, {"measurement": "TGI", "setting": "UACC-62 melanoma", "value": "> 100", "unit": "µM"}, {"measurement": "TGI", "setting": "UO-31 renal", "value": "> 100", "unit": "µM"}]}
